Assay results as given in patent publication US6017878A (McGill University, priority 1994, dated 2000).
“And” between values parts separate entries of the source, which are not always exact repeats. Equal entries are not always repeated. “Also recorded” adds a separate entry of the source.

Key:
[1] = test system: NGF induced neurite outgrowth in PC12 cells; assay: NGF induced neurite outgrowth assay in PC12 cells; type: cell-based, rat; conditions: analog ~10 μM, 50 ng/ml NGF; for INHIBITION OF NEURITE OUTGROWTH (1): PC12 cells, arbitrary units by comparison with NGF dose response curves
Procedure: (§1) All cells were cultured as described. PC12 pheochromocytoma cells expressing rat p140 trkA and p75 LNGFR (American Type Culture Collection, 7th edition, 1992, Catalog of cell lines and hybridomas, R. Hay Editor, accession No. CRL 1721) were grown in DMEM supplemented with 20% Fetal Bovine Serum (FBS), 10% Horse serum, and antibiotics. PC12 cells used for experiments were grown on collagen coated dishes. The NIH-3T3 fibroblast transfectants R7 (p75 and trkA double transfectant) and E25 (trkA transfectant) (Jing, S. et al. (1992) Neuron, 9: 1067-1079; kindly provided by Dr. Mariano Barbacid, Bristol-Meyers-Squibb, NJ) were grown in RPMI media supplemented with 5% FBS and antibiotics and the appropriate drug selection.
(§2) Cells without growth factor added served as baseline, whereas cells with growth factor but without analog added were used for maximum neurite outgrowth determination. All analogs were tested in at least three separate assays from three different synthesis. Samples were coded and analysis were performed blind.
(§3) Representative results for 3 different analogs are shown. For a summary and complete list of the results from these biological tests see Table II.
Significant inhibition is indicated by +++.

PC12 (trkA-p75) = target: T1, PC12 (trkA-p75) (Rattus norvegicus, UniProt P35739); assay: 125I-NGF binding to PC12 cells; conditions: mean ±2 SEM
T1 construct: PC12 pheochromocytoma cells expressing rat p140 trkA and p75 LNGFR; host or cells: PC12 rat pheochromocytoma cells
Procedure: as §1
Analogs were tested for their ability to affect binding of ^125 I-NGF (73.1 μCi/μg NEN, DuPont). […] After 15 min, ^125 I-NGF was added to a final concentration of 0.4-2 nM (^~ 40,000 cpm) and the mixtures were further incubated for 40 min at 4° C. Cells were then washed in binding buffer, pelleted, and cell-associated ^125 I-NGF was determined. […] Assays were performed >4 times, each from at least three different synthesis (inhibitory analogs) or 1-3 times each from 2 different synthesis (non-inhibitory analogs). Receptor saturation experiments were similarly performed with increasing concentrations of ^125 I-NGF ligand and a constant dose of inhibitor.
To determine the mechanism of biological antagonistic activity by the cyclic analogs, ^125 I-NGF binding measurements were performed with cell lines expressing both p75 and trkA receptors (PC12 cells and R7 transfectants) or only trkA receptors (E25 transfectants) (Table III). Analogs were used at a concentration of ^~ 40 μM.
(§4) Data shown represents an average percent inhibition of binding ±2 standard errors of the mean (2 SEM). […] NT=not tested. (*) assayed only once.
(§5) Percent inhibition was determined by applying the following formula: [formula]

[2] = target: T2, R7 (trkA-p75), NIH-3T3 p75 and trkA double transfectant (Homo sapiens, UniProt P04629); assay: 125I-NGF binding to R7 transfectants; conditions: analog ~40 μM; for % INHIBITION of 125I-NGF binding, R7 (trkA-p75): mean ±2 SEM
T2 construct: expressed in transfected cells; host or cells: NIH-3T3 mouse fibroblasts (R7), from Dr. Mariano Barbacid; Jing et al. 1992
Procedure: as §1
(§6) Assays were performed >4 times, each from at least three different synthesis (inhibitory analogs) or 1-3 times each from 2 different synthesis (non-inhibitory analogs).
(§7) Analogs were used at a concentration of ^~ 40 μM.
as §4, §5

[3] = target: T3, E25 (trkA), trkA receptor expressing fibroblast transfectants (Homo sapiens, UniProt P04629); assay: 125I-NGF binding to E25 transfectants, with dose response and saturation studies; conditions: for % INHIBITION of 125I-NGF binding, E25 (trkA) / effect on 125I-NGF binding to E25 cells (in words): analog ~40 μM; for % INHIBITION of 125I-NGF binding, E25 (trkA): mean ±2 SEM
T3 construct: expressed in transfected cells; host or cells: NIH-3T3 mouse fibroblasts (E25), from Dr. Mariano Barbacid; Jing et al. 1992
Procedure: as §1, §6, §7, §4, §5
Saturation binding assays were performed with trkA receptor expressing E25 cells as described above.

[4] = test system: bFGF mediated neurite outgrowth in PC12 cells; assay: bFGF mediated neurite outgrowth in PC12 cells (specificity control); type: cell-based, rat; conditions: analog ~10 μM, 50 ng/ml bFGF
Procedure: as §2, §3

PC12 cells = assay: Toxicity control: cell death of PC12 cells after culture with the compounds; type: cell-based, rat
[5] = target: T4, surface trkA receptors on E25 cells (Homo sapiens, UniProt P04629); assay: trkA receptor internalization in E25 cells (FACScan); type: cell-based; conditions: 10 μM, 30 min, 37° C. permissive vs 4° C. 0.05% sodium azide
T4 construct: expressed in transfected cells; host or cells: NIH-3T3 mouse fibroblasts (E25), from Dr. Mariano Barbacid; Jing et al. 1992
Excerpt: Expression of surface trkA receptors was quantified by FACScan analysis.
FIG. 4A illustrates FACScan profiles using an anti-trkA specific monoclonal antibody versus control mouse IgG.
FIG. 4B is a graph of the analysis of the % reduction of cell surface mean fluorescence channel (MFC, using the Lysis (B.D.) software) after receptor internalization.

[6] = target: T3, E25 (trkA), trkA receptor expressing fibroblast transfectants; assay: 125I-NGF binding to E25 transfectants, with dose response and saturation studies; conditions: dose response 0.4 μM to 200 μM analog, constant 200 pM 125I-NGF; read-out: IC50, inhibition of 125I-NGF binding
NGF biological activity = conditions: Longo et al. 1990; cited from earlier work

T3 sequence (P04629 33-790 isoform P04629-2 limits assumed): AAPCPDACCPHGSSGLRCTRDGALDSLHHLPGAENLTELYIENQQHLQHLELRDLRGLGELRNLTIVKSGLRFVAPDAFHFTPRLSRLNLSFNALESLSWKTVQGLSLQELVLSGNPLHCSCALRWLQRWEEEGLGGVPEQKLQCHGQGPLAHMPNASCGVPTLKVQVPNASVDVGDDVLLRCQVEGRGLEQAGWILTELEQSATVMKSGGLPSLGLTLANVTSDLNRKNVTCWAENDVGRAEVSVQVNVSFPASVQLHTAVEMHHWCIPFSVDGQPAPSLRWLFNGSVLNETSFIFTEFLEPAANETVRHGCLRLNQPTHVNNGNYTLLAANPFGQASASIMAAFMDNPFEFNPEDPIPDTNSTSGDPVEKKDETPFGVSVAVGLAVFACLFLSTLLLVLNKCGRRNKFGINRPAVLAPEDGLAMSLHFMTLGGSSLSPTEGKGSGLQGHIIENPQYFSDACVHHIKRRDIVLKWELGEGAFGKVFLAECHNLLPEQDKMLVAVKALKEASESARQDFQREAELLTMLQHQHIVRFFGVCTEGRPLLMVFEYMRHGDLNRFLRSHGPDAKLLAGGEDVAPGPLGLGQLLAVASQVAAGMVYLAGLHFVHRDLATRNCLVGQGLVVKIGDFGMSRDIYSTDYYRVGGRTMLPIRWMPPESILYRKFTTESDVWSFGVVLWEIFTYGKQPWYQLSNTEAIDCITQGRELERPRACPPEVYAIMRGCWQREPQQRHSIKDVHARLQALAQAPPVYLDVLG
T2 sequence (P04629 33-796): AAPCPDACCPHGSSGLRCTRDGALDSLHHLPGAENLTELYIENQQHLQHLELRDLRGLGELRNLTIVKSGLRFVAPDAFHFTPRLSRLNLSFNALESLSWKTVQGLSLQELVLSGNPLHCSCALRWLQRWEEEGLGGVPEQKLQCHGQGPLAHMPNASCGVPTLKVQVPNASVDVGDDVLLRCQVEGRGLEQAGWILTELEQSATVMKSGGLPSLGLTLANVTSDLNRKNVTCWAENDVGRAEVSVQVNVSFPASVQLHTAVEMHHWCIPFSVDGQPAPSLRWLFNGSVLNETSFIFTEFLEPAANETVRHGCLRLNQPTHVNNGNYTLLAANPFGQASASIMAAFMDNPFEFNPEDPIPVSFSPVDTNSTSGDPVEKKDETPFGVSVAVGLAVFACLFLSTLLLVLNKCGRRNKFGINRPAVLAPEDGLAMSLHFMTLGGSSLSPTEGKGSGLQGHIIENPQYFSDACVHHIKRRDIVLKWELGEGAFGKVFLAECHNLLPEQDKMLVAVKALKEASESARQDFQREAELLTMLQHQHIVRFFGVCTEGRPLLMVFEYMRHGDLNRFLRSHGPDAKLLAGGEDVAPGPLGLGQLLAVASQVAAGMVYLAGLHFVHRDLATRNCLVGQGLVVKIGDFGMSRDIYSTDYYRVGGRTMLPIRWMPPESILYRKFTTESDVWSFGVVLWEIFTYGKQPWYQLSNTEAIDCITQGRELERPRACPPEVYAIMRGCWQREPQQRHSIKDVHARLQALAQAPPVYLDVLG
T1 sequence (P35739 33-799): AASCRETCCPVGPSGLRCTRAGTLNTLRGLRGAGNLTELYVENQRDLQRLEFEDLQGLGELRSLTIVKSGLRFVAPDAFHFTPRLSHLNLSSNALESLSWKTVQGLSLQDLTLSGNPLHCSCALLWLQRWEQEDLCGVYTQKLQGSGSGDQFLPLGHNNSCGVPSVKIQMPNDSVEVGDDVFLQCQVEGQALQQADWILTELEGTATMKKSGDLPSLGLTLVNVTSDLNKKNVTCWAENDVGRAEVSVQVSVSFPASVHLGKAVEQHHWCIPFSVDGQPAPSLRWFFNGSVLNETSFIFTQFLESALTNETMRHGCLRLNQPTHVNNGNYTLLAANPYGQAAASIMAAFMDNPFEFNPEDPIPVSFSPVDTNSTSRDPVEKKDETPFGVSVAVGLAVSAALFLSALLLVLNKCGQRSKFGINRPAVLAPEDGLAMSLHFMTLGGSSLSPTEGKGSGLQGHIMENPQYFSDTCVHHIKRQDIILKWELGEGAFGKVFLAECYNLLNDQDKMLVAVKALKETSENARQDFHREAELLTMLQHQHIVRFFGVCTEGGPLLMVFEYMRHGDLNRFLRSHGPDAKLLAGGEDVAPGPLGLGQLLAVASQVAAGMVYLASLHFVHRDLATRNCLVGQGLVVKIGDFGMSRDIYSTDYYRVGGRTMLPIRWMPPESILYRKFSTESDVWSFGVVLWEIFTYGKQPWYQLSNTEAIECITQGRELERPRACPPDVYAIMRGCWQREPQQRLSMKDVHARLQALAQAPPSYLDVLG
T4 sequence (P04629 33-790 isoform P04629-2 limits assumed): as the sequence (P04629 33-790 isoform P04629-2 limits assumed) above

Substance: A N V S R S P E G (ANVSRSPEG) [R(59-67), randomized 59-67 control]
- INHIBITION OF NEURITE OUTGROWTH (1) [1]: + (equivalent to 25 ng/ml NGF)

Substance: A T D I K G K E V (ATDIKGKEV) [L(28-36), linear 28-36 control]
- % INHIBITION of 125I-NGF binding, PC12 (trkA-p75) (PC12 (trkA-p75); analog ~40 μM): 5.0%
- % INHIBITION of 125I-NGF binding, R7 (trkA-p75) [2]: -11.3%
- % INHIBITION of 125I-NGF binding, E25 (trkA) [3]: 6.4 ± 12.4%

Substance: Fmoc-X C A S N P V E S C X [C(60-66)]
- INHIBITION OF NEURITE OUTGROWTH (1) [1]: ++ (equivalent to 12.5 ng/ml NGF)

Substance: Fmoc-X C D I K G K E C X [C(30-35)]
- effect on NGF mediated PC12 neurite outgrowth (in words) [1]: did not affect
- effect on bFGF mediated PC12 neurite outgrowth (in words) [4]: did not affect
- effect on 125I-NGF binding to R7 cells (in words) [2]: did not affect NGF binding to R7 cells
- % INHIBITION of 125I-NGF binding, R7 (trkA-p75) [2]: 0.44 ± 0.6%
- effect on 125I-NGF binding to E25 cells (in words) [3]: inhibited NGF binding to E25 cells
- % INHIBITION of 125I-NGF binding, E25 (trkA) [3]: 51.1 ± 0.7%

Substance: Fmoc-X C I K G K E C X [C(31-35)]
- INHIBITION OF NEURITE OUTGROWTH (1) [1]: ++ (equivalent to 12.5 ng/ml NGF)

Substance: Fmoc-X C I N N S V C X [C(44-48)]
- effect on NGF mediated PC12 neurite outgrowth (in words) [1]: significantly inhibited; also recorded: effective in inhibiting biological assays in PC12 cells
- INHIBITION OF NEURITE OUTGROWTH (1) [1]: +++ (equivalent to 6.25 ng/ml NGF)
- effect on bFGF mediated PC12 neurite outgrowth (in words) [4]: did not affect
- effect on 125I-NGF binding to E25 cells (in words) [3]: did not inhibit; also recorded: without being effective at all in binding assays in E25 cells
- % INHIBITION of 125I-NGF binding, E25 (trkA) [3]: -12.5 ± 5.4%

Substance: Fmoc-X C K G K E C X [C(32-35)]
- INHIBITION OF NEURITE OUTGROWTH (1) [1]: ++ (equivalent to 12.5 ng/ml NGF)
- % INHIBITION of 125I-NGF binding, PC12 (trkA-p75) (PC12 (trkA-p75); analog ~40 μM): 9.0%
- effect on 125I-NGF binding to R7 cells (in words) [2]: did not affect NGF binding to R7 cells
- % INHIBITION of 125I-NGF binding, R7 (trkA-p75) [2]: -4.5 ± 6.5%
- effect on 125I-NGF binding to E25 cells (in words) [3]: inhibited NGF binding to E25 cells
- % INHIBITION of 125I-NGF binding, E25 (trkA) [3]: 30.7 ± 10.5%

Substance: Fmoc-X C N I N N S C X [C(43-47)]
- INHIBITION OF NEURITE OUTGROWTH (1) [1]: + (equivalent to 25 ng/ml NGF)

Substance: Fmoc-X C N I N N S V C X [C(43-48)]
- effect on NGF mediated PC12 neurite outgrowth (in words) [1]: significantly inhibited; also recorded: effective in inhibiting biological assays in PC12 cells
- INHIBITION OF NEURITE OUTGROWTH (1) [1]: +++ (equivalent to 6.25 ng/ml NGF)
- effect on bFGF mediated PC12 neurite outgrowth (in words) [4]: did not affect; also recorded: bFGF was not affected
- % INHIBITION of 125I-NGF binding, R7 (trkA-p75) [2]: 5.0%
- effect on 125I-NGF binding to E25 cells (in words) [3]: did not inhibit; also recorded: without being effective at all in binding assays in E25 cells
- % INHIBITION of 125I-NGF binding, E25 (trkA) [3]: -2.7 ± 8.5%

Substance: Fmoc-X C S N P V E S C X [C(61-66)]
- cell death / necrosis after culture with the compounds (PC12 cells): did cause necrosis

Substance: Fmoc-X C T A I K G K E C X [C(29-35ΔD30A)]
- cell death / necrosis after culture with the compounds (PC12 cells): did cause necrosis

Substance: Fmoc-X C T D E K Q A C X [C(92-97)]
- effect on NGF mediated PC12 neurite outgrowth (in words) [1]: significantly inhibited
- INHIBITION OF NEURITE OUTGROWTH (1) [1]: +++ (equivalent to 6.25 ng/ml NGF)
- effect on bFGF mediated PC12 neurite outgrowth (in words) [4]: did not affect
- % INHIBITION of 125I-NGF binding, R7 (trkA-p75) ([2]; 40 µM): 24.3% and 24.3 ± 9.2%
- % INHIBITION of 125I-NGF binding, E25 (trkA) ([3]; 40 µM): 64.9% and 64.9 ± 12.4%
- disappearance of surface trkA receptors (receptor internalization) [5]: induced the disappearance of surface trkA receptors at the permissive conditions only

Substance: Fmoc-X C T D E K Q C X [C(92-96)]
- effect on NGF mediated PC12 neurite outgrowth (in words) [1]: significantly inhibited
- effect on bFGF mediated PC12 neurite outgrowth (in words) [4]: did not affect
- % INHIBITION of 125I-NGF binding, PC12 (trkA-p75) (PC12 (trkA-p75); analog ~40 μM): 86.4 ± 10.4%
- % INHIBITION of 125I-NGF binding, R7 (trkA-p75) ([2]; 40 µM): 51.1% and 51.1 ± 0.7%
- nature of inhibition in saturation analysis ([3]; 45 μM analog, 125I-NGF 0-1.13 nM, E25 cells): competitive nature
- % INHIBITION of 125I-NGF binding, E25 (trkA) ([3]; 40 µM): 71.3% and 71.3 ± 13.5%
- IC50 [6]: 23.5 ± 16 µM

Substance: N N S F V I N V (NNSFVINV) [R(42-49), randomized 42-49 control]
- INHIBITION OF NEURITE OUTGROWTH (1) [1]: + (equivalent to 25 ng/ml NGF)

Substance: Nerve Growth Factor [NGF]
- % INHIBITION of 125I-NGF binding, PC12 (trkA-p75) (PC12 (trkA-p75); 0.1 uM unlabeled NGF): 69.5 ± 4.5%

Substance: R A S N P V E S G (RASNPVESG) [L(59-67), linear 59-67 control]
- INHIBITION OF NEURITE OUTGROWTH (1) [1]: + (equivalent to 25 ng/ml NGF)
- % INHIBITION of 125I-NGF binding, E25 (trkA) [3]: -9.5 ± 7.5%

Substance: T T D E K Q A A W (TTDEKQAAW) [L(91-99), linear 91-99 control]
- INHIBITION OF NEURITE OUTGROWTH (1) [1]: + (equivalent to 25 ng/ml NGF)
- % INHIBITION of 125I-NGF binding, R7 (trkA-p75) [2]: 3.8 ± 1.0%
- effect on 125I-NGF binding to E25 cells (in words) [3]: None of the other cyclic, linear or randomized analogs had significant effects
- % INHIBITION of 125I-NGF binding, E25 (trkA) [3]: 2.1 ± 8.5%

Substance: V N I N N S V F (VNINNSVF) [L(42-49), linear 42-49 control]
- % INHIBITION of 125I-NGF binding, R7 (trkA-p75) [2]: 8.0%
- % INHIBITION of 125I-NGF binding, E25 (trkA) [3]: -16.0 ± 15.1%

Substance: X C A S N P V E C [C(60-65)]
- INHIBITION OF NEURITE OUTGROWTH (1) [1]: ++ (equivalent to 12.5 ng/ml NGF)

Substance: peptide with sequences from NGF residues 23-35: prior-art linear peptide of Longo et al. with sequences from NGF residues 23-35 (GDKTTATDIKGKE; UniProt P01138 144-156, looked up, fragment)
- concentration of peptide at which inhibition of NGF biological activity occurred (NGF biological activity): 2 mM
